Assay results from paper PMC6931042 (Bioorganic chemistry, 2018).
Where two headings read alike, the source gives them in different places.

Tests used:
CCRF-CEM = assay: NCI in vitro five dose anticancer assay; format: cell-based, human
K-562 = assay: NCI in vitro five dose anticancer assay; format: cell-based, human
A549/ATCC = assay: NCI in vitro five dose anticancer assay; format: cell-based, human
EKVX = assay: NCI in vitro five dose anticancer assay; format: cell-based, human
HOP-62 = assay: NCI in vitro five dose anticancer assay; format: cell-based, human
HOP-92 = assay: NCI in vitro five dose anticancer assay; format: cell-based, human
NCI-H23 = assay: NCI in vitro five dose anticancer assay; format: cell-based, human
NCI-H322M = assay: NCI in vitro five dose anticancer assay; format: cell-based, human
HCC-2998 = assay: NCI in vitro five dose anticancer assay; format: cell-based, human
SF-539 = assay: NCI in vitro five dose anticancer assay; format: cell-based, human
SNB-75 = assay: NCI in vitro five dose anticancer assay; format: cell-based, human
U251 = assay: NCI in vitro five dose anticancer assay; format: cell-based, human
PC-3 = assay: NCI in vitro five dose anticancer assay; format: cell-based, human
DU-145 = assay: NCI in vitro five dose anticancer assay; format: cell-based, human
LOX IMVI = assay: NCI in vitro five dose anticancer assay; format: cell-based, human
M14 = assay: NCI in vitro five dose anticancer assay; format: cell-based, human
SK-MEL-28 = assay: NCI in vitro five dose anticancer assay; format: cell-based, human
OVCAR-4 = assay: NCI in vitro five dose anticancer assay; format: cell-based, human
OVCAR-5 = assay: NCI in vitro five dose anticancer assay; format: cell-based, human
786–0 = assay: NCI in vitro five dose anticancer assay; format: cell-based, human
UO-31 = assay: NCI in vitro five dose anticancer assay; format: cell-based, human
MDA-MB231/ATCC = assay: NCI in vitro five dose anticancer assay; format: cell-based, human
HS 578T = assay: NCI in vitro five dose anticancer assay; format: cell-based, human
BT-549 = assay: NCI in vitro five dose anticancer assay; format: cell-based, human
MDA-MB-468 = assay: NCI in vitro five dose anticancer assay; format: cell-based, human
A549 and K-562 cells = assay: Cytotoxicity IC50 stated jointly for the 2 cell lines; format: cell-based, human; conditions: read-out: IC50 against the 2 cell lines tested
K-562 cells [1] = assay: Cell cycle analysis by flow cytometry; format: cell-based, human; conditions: 24 h
A549 cells = assay: Apoptosis, annexin V-FITC/PI flow cytometry; format: cell-based, human; conditions: for percentage of apoptotic cells: 48 h; for proportion of apoptotic cells compared to control: 1, 3, or 6 μM, 24 h, data not shown
K-562 cells [2] = assay: Apoptosis, annexin V-FITC/PI flow cytometry; format: cell-based, human; conditions: 24 h
PI3K-γ = PI3K-γ (Homo sapiens, UniProt P48736); assay: PI3K biochemical assay
class I PI3K enzymes = assay: PI3K biochemical assay, all isoforms stated jointly; conditions: read-out: IC50s against the different PI3K isoforms; range over PI3K-α, β, γ, δ
[3] = system: p53, p21, cyclin B1 and Cdc2 in K-562 cells; assay: Western blotting, p53 and cell cycle regulators; format: cell-based, human; conditions: 1, 3 and 6 μM, western blot; for expression of Cdc2 / expression of cyclin B1 / expression of p21: dose dependent
[4] = system: Bcl-2, Bax, and cleaved caspases (3, 8, and 9) in A549 cells; assay: Western blotting, apoptosis markers; format: cell-based, human; conditions: 48 h, 1, 3 and 6 μM, western blot; for levels of Bax / levels of cleaved caspase 3 / levels of cleaved caspase 9: dose-dependent
PI3K-δ = PI3K-δ (Homo sapiens, UniProt O00329); assay: PI3K biochemical assay
[5] = Non-small cell lung cancer, five dose assay
[6] = Prostate cancer, five dose assay
[7] = Ovarian cancer, five dose assay

PI3K-γ, sequence (P48736 whole entry, canonical isoform): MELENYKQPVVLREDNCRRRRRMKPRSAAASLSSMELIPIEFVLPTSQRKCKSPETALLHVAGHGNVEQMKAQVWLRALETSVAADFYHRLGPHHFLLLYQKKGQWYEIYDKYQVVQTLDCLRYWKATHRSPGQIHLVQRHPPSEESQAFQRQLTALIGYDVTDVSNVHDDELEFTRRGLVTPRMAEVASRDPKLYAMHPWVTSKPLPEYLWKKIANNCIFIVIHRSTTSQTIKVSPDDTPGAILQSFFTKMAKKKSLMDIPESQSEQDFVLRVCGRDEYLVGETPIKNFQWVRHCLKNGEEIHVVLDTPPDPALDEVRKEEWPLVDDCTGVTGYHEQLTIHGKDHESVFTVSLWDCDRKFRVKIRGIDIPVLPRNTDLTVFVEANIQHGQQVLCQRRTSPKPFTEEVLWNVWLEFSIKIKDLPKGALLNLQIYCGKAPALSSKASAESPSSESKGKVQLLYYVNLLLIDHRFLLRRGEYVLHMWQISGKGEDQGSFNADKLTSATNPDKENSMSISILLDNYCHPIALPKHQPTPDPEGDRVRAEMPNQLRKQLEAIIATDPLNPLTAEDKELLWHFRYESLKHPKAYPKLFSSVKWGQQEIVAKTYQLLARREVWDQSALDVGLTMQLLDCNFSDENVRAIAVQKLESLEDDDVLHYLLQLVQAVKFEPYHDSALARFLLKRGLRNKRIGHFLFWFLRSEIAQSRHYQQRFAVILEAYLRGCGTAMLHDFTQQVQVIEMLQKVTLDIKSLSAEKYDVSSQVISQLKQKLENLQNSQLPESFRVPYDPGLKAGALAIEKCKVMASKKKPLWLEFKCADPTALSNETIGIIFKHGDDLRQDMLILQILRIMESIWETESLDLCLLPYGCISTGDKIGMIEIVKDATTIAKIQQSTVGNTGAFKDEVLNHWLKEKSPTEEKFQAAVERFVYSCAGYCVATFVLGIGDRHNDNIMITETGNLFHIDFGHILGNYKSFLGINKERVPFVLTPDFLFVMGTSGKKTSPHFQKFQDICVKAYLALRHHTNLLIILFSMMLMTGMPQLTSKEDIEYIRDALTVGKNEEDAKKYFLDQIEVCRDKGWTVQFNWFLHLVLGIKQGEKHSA
PI3K-δ, sequence (O00329 whole entry): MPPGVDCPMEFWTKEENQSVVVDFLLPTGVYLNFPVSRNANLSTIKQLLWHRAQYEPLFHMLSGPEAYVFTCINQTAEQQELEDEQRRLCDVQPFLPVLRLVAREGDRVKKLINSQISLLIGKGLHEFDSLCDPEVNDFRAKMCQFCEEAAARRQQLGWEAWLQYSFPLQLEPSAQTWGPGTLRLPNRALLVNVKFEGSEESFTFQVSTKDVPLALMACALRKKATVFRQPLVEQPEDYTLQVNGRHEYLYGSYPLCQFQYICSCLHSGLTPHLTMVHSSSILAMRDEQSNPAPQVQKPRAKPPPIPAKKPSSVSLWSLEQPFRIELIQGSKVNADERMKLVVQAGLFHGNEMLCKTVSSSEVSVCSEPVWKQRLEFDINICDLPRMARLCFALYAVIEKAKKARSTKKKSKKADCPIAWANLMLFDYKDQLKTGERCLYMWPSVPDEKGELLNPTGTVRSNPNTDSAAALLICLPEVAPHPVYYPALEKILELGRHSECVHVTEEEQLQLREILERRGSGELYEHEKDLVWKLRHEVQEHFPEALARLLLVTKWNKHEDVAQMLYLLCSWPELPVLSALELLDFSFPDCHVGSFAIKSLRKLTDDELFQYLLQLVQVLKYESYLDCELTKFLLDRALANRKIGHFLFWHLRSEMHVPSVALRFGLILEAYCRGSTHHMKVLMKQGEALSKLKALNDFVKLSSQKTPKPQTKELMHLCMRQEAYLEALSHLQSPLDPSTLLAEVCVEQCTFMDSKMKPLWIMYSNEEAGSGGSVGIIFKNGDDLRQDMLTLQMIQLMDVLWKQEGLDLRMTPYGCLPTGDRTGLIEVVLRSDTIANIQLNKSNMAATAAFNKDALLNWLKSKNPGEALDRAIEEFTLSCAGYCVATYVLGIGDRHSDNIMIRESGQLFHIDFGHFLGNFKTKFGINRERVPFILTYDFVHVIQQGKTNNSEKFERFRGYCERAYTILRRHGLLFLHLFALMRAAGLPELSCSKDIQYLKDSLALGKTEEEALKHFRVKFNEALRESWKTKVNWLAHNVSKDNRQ
PI3K-δ, sequence (P27986 whole entry partner): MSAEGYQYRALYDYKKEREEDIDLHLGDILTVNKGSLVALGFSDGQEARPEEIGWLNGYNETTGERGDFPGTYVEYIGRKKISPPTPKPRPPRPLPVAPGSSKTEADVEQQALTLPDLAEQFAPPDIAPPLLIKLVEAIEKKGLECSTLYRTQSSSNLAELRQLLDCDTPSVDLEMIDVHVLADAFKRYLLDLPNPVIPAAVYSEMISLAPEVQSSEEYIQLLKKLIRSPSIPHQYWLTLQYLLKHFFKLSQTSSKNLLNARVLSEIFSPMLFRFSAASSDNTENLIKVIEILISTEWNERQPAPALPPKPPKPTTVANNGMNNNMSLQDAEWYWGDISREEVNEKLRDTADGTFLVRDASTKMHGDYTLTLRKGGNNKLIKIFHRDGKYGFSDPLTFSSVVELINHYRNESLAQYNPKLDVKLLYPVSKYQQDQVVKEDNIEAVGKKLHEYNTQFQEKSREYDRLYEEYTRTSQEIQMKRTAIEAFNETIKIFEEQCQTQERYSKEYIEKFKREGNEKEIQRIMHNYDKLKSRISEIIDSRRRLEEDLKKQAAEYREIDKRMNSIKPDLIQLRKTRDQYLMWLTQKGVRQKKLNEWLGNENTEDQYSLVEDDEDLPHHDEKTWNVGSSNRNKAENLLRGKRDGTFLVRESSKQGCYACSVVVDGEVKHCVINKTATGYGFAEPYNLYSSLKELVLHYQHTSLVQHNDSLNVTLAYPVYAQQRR

## COc1ccc(-c2cc(C(=O)NN=C(/C=C\c3ccc(Cl)cc3)c3ccc(N)cc3)c3ccccc3n2)cc1 [Compound 9i, N’-((Z)-1-(4-Aminophenyl)-3-(4-chlorophenyl)allylidene)-2-(4-methoxphenyl)quinoline-4-carbohydrazide]
CCRF-CEM; Leukemia, five dose assay
  GI50: 5.84 µM
K-562; Leukemia, K-562, five dose assay
  GI50: 1.05 µM
A549/ATCC; Non-small cell lung cancer, A549/ATCC, five dose assay
  GI50: 2.33 µM
EKVX; [5]
  GI50: 3.78 µM
HOP-62; [5]
  GI50: 3.21 µM
HOP-92; [5]
  GI50: 1.92 µM
NCI-H23; [5]
  GI50: 3.14 µM
NCI-H322M; [5]
  GI50: 6 µM
HCC-2998; Colon cancer, HCC-2998, five dose assay
  GI50: 3.4 µM
SF-539; CNS cancer, five dose assay
  GI50: 1.41 µM
SNB-75; CNS cancer, five dose assay
  GI50: 0.371 µM
U251; CNS cancer, U251, five dose assay
  GI50: 2.18 µM
PC-3; [6]
  GI50: 2.03 µM
DU-145; [6]
  GI50: 3.16 µM
LOX IMVI; Melanoma, five dose assay
  GI50: 1.56 µM
M14; Melanoma, five dose assay
  GI50: 1.16 µM
SK-MEL-28; Melanoma, five dose assay
  GI50: 3.78 µM
OVCAR-4; [7]
  GI50: 1.82 µM
OVCAR-5; [7]
  GI50: 5.51 µM
786–0; Renal cancer, 786–0, five dose assay
  GI50: 1.84 µM
UO-31; Renal cancer, five dose assay
  GI50: 1.55 µM
MDA-MB231/ATCC; Breast cancer, MDA-MB231/ATCC, five dose assay
  GI50: 3.28 µM
HS 578T; Breast cancer, HS 578T, five dose assay
  GI50: 1.05 µM
BT-549; Breast cancer, five dose assay
  GI50: 2.04 µM
MDA-MB-468; Breast cancer, five dose assay
  GI50: 2.95 µM
A549 and K-562 cells; range over A549 and K-562
  IC50: 1.91 to 5.29 µM
K-562 cells [1]; 1 μM
  percentage of cells in the G2/M phase: 2.95%
K-562 cells [1]; 3 μM
  percentage of cells in the G2/M phase: 30.7%
K-562 cells [1]; 6 μM
  percentage of cells in the G2/M phase: 49.3%
A549 cells; 1 μM
  percentage of apoptotic cells: 13.21%
A549 cells; 3 μM
  percentage of apoptotic cells: 22.73%
A549 cells; 6 μM
  percentage of apoptotic cells: 35.9%
A549 cells
  proportion of apoptotic cells compared to control: did not result in changes
K-562 cells [2]; 1 μM
  percentage of apoptotic cells: 25.79%
K-562 cells [2]; 3 μM
  percentage of apoptotic cells: 46.2%
K-562 cells [2]; 6 μM
  percentage of apoptotic cells: 46.6%
PI3K-γ; read-out: IC50 (nM) PI3K-γ, ADP-Glo, ATP 10 μM
  IC50: 52 nM
Class I PI3K enzymes
  IC50: 0.052 to 0.473 µM
[3]
  expression of non-functional p53: no effect
  expression of Cdc2: attenuated
  expression of cyclin B1: attenuated
  expression of p21: significantly induced
[4]
  levels of Bcl-2: decreased
  levels of cleaved caspase 8: not altered
  levels of Bax: increased
  levels of cleaved caspase 3: increased
  levels of cleaved caspase 9: increased
PI3K-δ; read-out: IC50 (nM) PI3K-δ, ADP-Glo, ATP 10 μM
  IC50: 438 nM

## Cc1ccc(-c2cc(C(=O)NN=C(/C=C\c3ccc(Cl)cc3)c3ccc(N)cc3)c3ccccc3n2)cc1 [Compound 9j, N’-((Z)-1-(4-Aminophenyl)-3-(4-chlorophenyl)allylidene)-2-(4-methylphenyl)quinoline-4-carbohydrazide]
CCRF-CEM; Homo sapiens
  GI50: 4.53 µM
K-562; Homo sapiens, K562
  GI50: 3.09 µM
A549/ATCC; Homo sapiens, A549
  GI50: 4.79 µM
EKVX; Homo sapiens
  GI50: 3.99 µM
HOP-62; Homo sapiens
  GI50: 4.62 µM
HOP-92; Homo sapiens
  GI50: 4.1 µM
NCI-H23; Homo sapiens
  GI50: 5.02 µM
NCI-H322M; Homo sapiens
  GI50: 4.73 µM
HCC-2998; Homo sapiens, HCC 2998
  GI50: 4.28 µM
SF-539; Homo sapiens
  GI50: 2.43 µM
SNB-75; Homo sapiens
  GI50: 1.41 µM
U251; Homo sapiens, U-251
  GI50: 4.51 µM
PC-3; Homo sapiens
  GI50: 3.4 µM
DU-145; Homo sapiens
  GI50: 3.68 µM
LOX IMVI; Homo sapiens
  GI50: 4 µM
M14; Homo sapiens
  GI50: 2.54 µM
SK-MEL-28; Homo sapiens
  GI50: 6.23 µM
OVCAR-4; Homo sapiens
  GI50: 4.71 µM
OVCAR-5; Homo sapiens
  GI50: 8.43 µM
786–0; Homo sapiens, 786-0
  GI50: 4.22 µM
UO-31; Homo sapiens
  GI50: 2.2 µM
MDA-MB231/ATCC; Homo sapiens, MDA-MB-231
  GI50: 3.94 µM
HS 578T; Homo sapiens, Hs-578T
  GI50: 4.68 µM
BT-549; Homo sapiens
  GI50: 3.92 µM
MDA-MB-468; Homo sapiens
  GI50: 4.91 µM
A549 and K-562 cells; Homo sapiens
  IC50: 1.91 to 5.29 µM
K-562 cells [1]; 1 μM
  percentage of cells in the G2/M phase: 5.1%
K-562 cells [1]; 3 μM
  percentage of cells in the G2/M phase: 16.6%
K-562 cells [1]; 6 μM
  percentage of cells in the G2/M phase: 41.7%
A549 cells; 1 μM
  percentage of apoptotic cells: 14.68%
A549 cells; 3 μM
  percentage of apoptotic cells: 14.07%
A549 cells; 6 μM
  percentage of apoptotic cells: 28.1%
A549 cells
  proportion of apoptotic cells compared to control: did not result in changes
K-562 cells [2]; 1 μM
  percentage of apoptotic cells: 16.65%
K-562 cells [2]; 3 μM
  percentage of apoptotic cells: 39.4%
K-562 cells [2]; 6 μM
  percentage of apoptotic cells: 47.1%
PI3K-γ
  IC50: 197 nM
Class I PI3K enzymes
  IC50: 0.052 to 0.473 µM
[3]
  expression of non-functional p53: no effect
  expression of Cdc2: attenuated
  expression of cyclin B1: attenuated
  expression of p21: significantly induced
[4]
  levels of Bcl-2: decreased
  levels of cleaved caspase 8: not altered
  levels of Bax: increased
  levels of cleaved caspase 3: increased
  levels of cleaved caspase 9: increased
PI3K-δ
  IC50: 473 nM
